Assay [1] concerns subcutaneous gliomas (rat glioma C6 cells). Nature of the assay: Progression of established subcutaneous C6 gliomas in rats. The settings on record: for average size (volume) of the subcutaneous gliomas: vs carrier. The format is in vivo. The protocol: Rat C6 glioma cells were cultured as previously described (Cuevas P et al. Neurol Res, 2005). The C6 cells cultured to confluence in 75 cm^2 flasks were removed and implanted under the abdominal skin in anesthetized rats. The existence of a tumor in the implantation area was observed five days after the implantation of the tumor cells. Only the rats in which the existence of a tumor was observed were randomly assigned to be treated with daily intraperitoneal injections of 2,5-dihydroxybenzene sulfonate (DHBS; 100 mg/kg/day), 2,5-diacetoxybenzene sulfonate (DABS; 100 mg/kg/day) or the carrier (0.9% NaCl). After 10 days of treatment, the subcutaneous gliomas were removed and their volume was calculated according to the formula V=4/3π·(L/2)·(A/2)^2 (in mm^3) where L is the larger diameter and A is the smaller diameter, both expressed in mm.
Tumor cells elude the programmed cell death process or apoptosis that normal cells experience. Apoptosis induction in tumor cells is one way to confront the development of a tumor. To evaluate the effect of potassium 2,5-dihydroxybenzene sulfonate […] on tumor cell apoptosis, 6 μm thick sections of the subcutaneous gliomas described in example 4 were made. The sections were stained with hematoxylin and eosin and observed at a magnification of 313 times using immersion oil. In these conditions, cell apoptosis is shown by the existence of apoptotic bodies appearing as strongly chromogenic granules in the cell nucleus which is frequently fragmented.

The target in assay [2] is T1, Fibroblast Growth Factor-1 (FGF-1) (Homo sapiens, UniProt P05230). Nature of the assay: FGF-1-induced mitogenesis in quiescent Balb/c 3T3 fibroblast cultures. The format is cell-based. The settings on record: quiescent Balb/c 3T3 fibroblasts. The protocol:
The evaluated compounds were used in the form of potassium salt, except in the first case which used calcium salt. The experiments were carried out as described in Fernandez-Tornero C et al. J Biol Chem, 2003.

The target in assay [3] is T1, Fibroblast Growth Factor-1 (FGF-1). Nature of the assay: Crystal diffraction of FGF-1:compound complexes. The format is binding. The settings on record: acetoxyl groups conserved when bound. The protocol: Based on the crystal diffraction of the FGF-1:2-acetoxy-5-hydroxybenzene sulfonic acid, FGF-1:5-acetoxy-2-hydroxybenzene sulfonic acid and FGF-1:2,5-diacetoxybenzene sulfonic acid complexes, the structures of the complexes were calculated and represented. FIGS. 13, 14 and 15, which show the surface of the dyed protein according to its electrostatic potential (light grey, negative charge; dark grey, positive charge; white, regions with no charge), show the manner in which 2-acetoxy-5-hydroxybenzene sulfonic acid, 5-acetoxy-2-hydroxybenzene sulfonic acid and 2,5-diacetoxybenzene sulfonic acid interact, respectively, with FGF-1.

Another assay concerns bFGF-induced fibrosis. Nature of the assay: bFGF-induced fibrosis, subcutaneous gelatin sponge implant. In kind it is in vivo, Sprague-Dawley rats. The settings on record: sponge with bFGF plus compound 100 μM, 7 days. The method, then: Sterile gelatin sponges (1 mm^3; Curaspon Dental, Clinimed Holding, Zwanenburg, The Netherlands) were subcutaneously implanted in the dorsal region of the neck in Sprague-Dawley rats after the induction of intraperitoneal anesthesia. The animals were split into two groups: group A, the sponges were moistened with 200 μl of saline solution which contained 25 μg/ml of heparin and 10 μg/ml of basic FGF (bFGF); group B, the sponges were moistened in the same solution as in group A, but which solution further contained 2,5-dihydroxybenzoate (100 μM). After 7 days, the sponges and the surrounding subcutaneous fat were removed and histologically analyzed.

Another assay concerns rat glioma C6 cells. Nature of the assay: Rat glioma C6 cell proliferation, crystal violet staining. The settings on record: 48 h. In kind it is cell-based. The method, then:
The cell line used was rat glioma C6 cells. The cells were cultured as previously described (Cuevas P et al. Neurol Res, 2005). The cells were cultured as adherent cells in Dulbecco's modified Eagle's medium, supplemented with 7.5% (v/v) of fetal bovine serum, 10 μg/ml of streptomycin and 10 units/ml of penicillin. The tumor cells were seeded in 24-well plates at a density of 10,000 cells/well, and were incubated at 37° C. in a humidified chamber with 5% CO2. Once adhered, the cells were treated or not (controls) with 2,5-dihydroxybenzoate at 100, 200, 500 or 1000 μM and they were allowed to proliferate for 48 h. After this time the glioma cell proliferation was evaluated by means of staining the fixed cells with crystal violet. The number of cells is proportional to the amount of retained dye, which was spectrophotometrically determined by measuring the absorbance at 595 nm once the dye was extracted from the cells.
The cell line used was the C6 cell line and the experiment was carried out as described in Example 2. Once adhered, the cells were treated or not (controls) with increasing concentrations of 2,5-DHC (10, 25, 50 and 100 μM) and they were allowed to proliferate for 48 h. After this time the glioma cell proliferation was evaluated by means of staining the fixed cells with crystal violet. The number of cells is proportional to the amount of retained dye, which was determined spectrophotometrically by measuring absorbance at 595 nm once the dye was extracted from the cells.
The cell line used was the C6 cell line and the experiment was carried out as described in examples 2 and 3. Once adhered, the cells were treated or not (controls) with (5A-2HBS) (500 μM) or (2A-5HBS) (500 μM) and they were allowed to proliferate for 48 h. After this time the glioma cell proliferation was evaluated by means of staining the fixed cells with crystal violet. The number of cells is proportional to the amount of retained dye, which was determined spectrophotometrically by measuring the absorbance at 595 nm once the dye was extracted from the cells.

Assay [4] relates to human prostate cancer PC-3 cells. Nature of the assay: Human tumor cell proliferation, XTT viability method, PC-3. The settings on record: 1-200 μM, 96 h. In kind it is cell-based. The protocol:
(§1) The cell lines used were the human prostate cancer PC-3 cells and human lung cancer A549 cells. 2000 cells were seeded per well in 96-well plates and they were allowed to adhere overnight. Then the cells were treated or not (controls) with potassium 2,5-diacetoxybenzene sulfonate (DABS) (1-200 μM) and they were allowed to proliferate for 96 h. After this time, the PC-3 and A549 cell proliferation was evaluated by determining the final number of cells by means of the viability method of yellow tetrazolium salt (XTT). The data were expressed as a percentage of the control (without treatment).
A general note: Tetrazolium assays rely on reduction of a dye to a coloured formazan, in cell work by metabolically active cells.

In assay [5] the test system is human lung cancer A549 cells. Nature of the assay: Human tumor cell proliferation, XTT viability method, A549. The format is cell-based. The settings on record: 1-200 μM, 96 h. The protocol:
as §1

For assay [6], the system named is human prostate cancer PC-3 cells. Nature of the assay: Subcutaneous PC-3 tumor progression in athymic mice. In kind it is in vivo, athymic mice (Nu/Nu). The settings on record: 100 mg/kg daily i.p., 15 days. The method, then: 5×10^6 human prostate cancer PC-3 cells were subcutaneously injected in male athymic mice (Nu/Nu) of 6-8 weeks of age and weighing 20-26 g. Ten days after the implantation of the tumor cells, the mice were randomly split into two groups: one of them received a daily injection of potassium 2,5-diacetoxybenzene sulfonate (DABS) by intraperitoneal route at a dose of 100 mg/kg dissolved in saline (0.9% NaCl) whereas the other group received a daily injection of carrier (saline). The treatments were administered for 15 days. The volumes of the tumors induced by the implantation of PC-3 cells were measured through the skin on alternating days using a Vernier caliper. The volume was calculated using the formula V=(D×2d)/2, where D is the larger diameter in mm, d is the smaller diameter in mm and V is the volume in mm3. At the end of treatment, the mice were sacrificed and the tumors were weighed.

The structures appear in SMILES notation.

T1 sequence (P05230 whole entry, species assumed): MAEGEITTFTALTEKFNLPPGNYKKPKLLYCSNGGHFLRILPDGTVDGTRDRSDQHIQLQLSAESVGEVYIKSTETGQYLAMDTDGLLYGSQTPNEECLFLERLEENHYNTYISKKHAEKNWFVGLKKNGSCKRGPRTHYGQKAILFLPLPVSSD

In the case of `O=S(=O)([O-])c1cc(O)ccc1O.[K+]` [DHBS, potassium 2,5-dihydroxybenzene sulfonate, reference compound], in assay [1] (i.p. 100 mg/kg/day, 10 days), the “average size (volume) of the subcutaneous gliomas” value is recorded as “less than that of the rats treated with carrier”. The “inhibition of mitogenesis induced by FGF-1” value in assay [2] is “inhibition of the mitogenesis induced by fibroblast growth factor 1”.

Consider `CC(=O)Oc1ccc(O)cc1S(=O)(=O)[O-].[K+]` [2A-5HBS, potassium 2-acetoxy-5-hydroxybenzene sulfonate], for which, in assay [3], the “structural interaction with FGF-1 (binding site in co-crystal)” value (shortened to “structural interaction”) was “occupy a site that is very close to the one that has been described occupied by 2,5-dihydroxybenzene sulfonic acid”.

For the compound `O=C([O-])c1cc(O)ccc1O.[K+]` [2,5-dihydroxybenzoate, potassium 2,5-dihydroxybenzoate], in the assay on bFGF-induced fibrosis, the “bFGF-induced fibrosis (fibroblasts in septa of connective tissue of adipose tissue)” value is reported as “reduces bFGF-induced fibrosis”. In the assay with rat glioma C6 cells (100, 200, 500 or 1000 μM), the “rat glioma C6 cell proliferation (absorbance at 595 nm)” value was “inhibited rat glioma C6 cell proliferation in a concentration-dependent manner, an effect which was statistically significant at the concentrations of 500 and 1000 μM”.

For `CC(=O)Oc1ccc(OC(C)=O)c(S(=O)(=O)[O-])c1.[K+]` [DABS, potassium 2,5-diacetoxybenzene sulfonate], in assay [1] (100 mg/kg/day i.p., 10 days), the “tumor cell apoptosis in subcutaneous glioma sections (hematoxylin and eosin)” value is “a large number of tumor cells in apoptosis can be observed”. The “probability of being tumor-free (χ2 test)” value in assay [1] (DABS group vs DHBS group, 100 mg/kg/day) is listed as “greater probability of being tumor-free”. For the same compound, the “average size (volume) of the subcutaneous gliomas” value in assay [1] (i.p. 100 mg/kg/day, 10 days) was “this average volume was even less”. Further, in assay [1] (i.p. 100 mg/kg/day, 10 days, all rats had established tumors prior to treatment), the “rats tumor-free when treatment ended” value is listed as 4 rats. Also, the “PC-3 cell proliferation (percentage of control)” value in assay [4] is “caused a significant inhibition”. Also, in assay [5], the “A549 cell proliferation (percentage of control)” value is reported as “caused a significant inhibition”. In assay [6], the “tumor growth (tumor volume)” value is listed as “significantly reduced the human prostate cell tumor growth” and the “weight of the extracted tumor when treatment ended” value is listed as “significant reduction of the weight of the extracted tumor”. Also, the “structural interaction” value in assay [3] is “occupy a site that is very close to the one that has been described occupied by 2,5-dihydroxybenzene sulfonic acid”.

For `O=C(O)C=Cc1cc(O)ccc1O` [2,5-DHC, 3-(2,5-dihydroxyphenyl)-2-propenoic acid], the C6 cell proliferation result was “reduced the C6 cell proliferation to less than half” in the assay on rat glioma C6 cells (50 μM) and “proliferation was reduced to one tenth” with rat glioma C6 cells (100 μM).

In the case of `CC(=O)Oc1ccc(O)c(S(=O)(=O)[O-])c1.[K+]` [5A-2HBS, potassium 5-acetoxy-2-hydroxybenzene sulfonate], the “structural interaction” value in assay [3] is “occupy a site that is very close to the one that has been described occupied by 2,5-dihydroxybenzene sulfonic acid”.

Values taken from patent US10278941B2, “Use of 2,5-dihydroxybenzene compounds and derivatives for the treatment of glioma” (AmDerma Pharmaceuticals, LLC, priority 2006, dated 2019).
